According to US20100179158A1, “INHIBITORS OF CYCLIC AMP PHOSPHODIESTERASES” (priority 2007, published 2010):

Assays:
[1] = biological target: T1, PDE4A1 (Mus musculus, UniProt O89084); test: Fission yeast 5FOA growth assay, strain expressing PDE4A1; format: cell-based, murine; conditions: 5FOA growth screen; for 2 Assay (2 uM), PDE 4A1: 2 uM compound; for 1 Assay (20 uM), PDE 4A1: 20 uM compound
T1 construct: targets used in the assays are full-length proteins (as opposed to simply the catalytic domain); expressed in transfected cells; host or cells: Schizosaccharomyces pombe, gene integrated at the cgs2 locus
T1 sequence (O89084 1-610 isoform O89084-2): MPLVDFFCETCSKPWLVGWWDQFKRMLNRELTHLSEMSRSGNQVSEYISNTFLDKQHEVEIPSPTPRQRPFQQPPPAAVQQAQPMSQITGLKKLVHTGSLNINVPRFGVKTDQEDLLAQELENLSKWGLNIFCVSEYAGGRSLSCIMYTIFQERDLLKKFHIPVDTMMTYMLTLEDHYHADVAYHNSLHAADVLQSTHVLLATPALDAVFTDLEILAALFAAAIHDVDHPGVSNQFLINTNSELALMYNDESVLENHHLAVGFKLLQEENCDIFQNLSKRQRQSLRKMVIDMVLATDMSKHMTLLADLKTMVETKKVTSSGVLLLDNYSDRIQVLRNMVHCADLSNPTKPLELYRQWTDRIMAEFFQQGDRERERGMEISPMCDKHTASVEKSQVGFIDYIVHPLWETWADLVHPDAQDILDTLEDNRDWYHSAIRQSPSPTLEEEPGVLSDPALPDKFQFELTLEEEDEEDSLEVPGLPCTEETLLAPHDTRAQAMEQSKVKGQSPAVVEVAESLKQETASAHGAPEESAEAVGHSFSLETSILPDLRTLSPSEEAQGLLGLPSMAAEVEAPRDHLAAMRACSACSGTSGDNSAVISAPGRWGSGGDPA
Description: (§1) High throughput drug screens were carried out at the Broad Institute's Chemical Biology Program screening facility (Broad Institute, Cambridge, Mass.). Depending upon the strain, cultures were pregrown to exponential phase in EMM complete medium containing from 0.5 to 2.5 mM cAMP to repress fbp1-ura4 transcription. […] Starting cell concentrations ranged from 0.5×10^5 to 4×10^5 cells/ml depending on the screening strain. […] Other positive control dishes contained 5 mM cAMP in the 5FOA medium. Cultures were grown for 48 hours at 30° C., sealed in an airtight container with moist paper towels to prevent evaporation. Optical densities (OD600) of cultures were measured using a microplate reader. Bioinformatic analysis of the results to determine composite Z scores was performed as previously described^30, 31.
(§2) Cells were pregrown in EMM medium [MP Biomedicals (Solon, OH), 3% glucose, filter-sterilized to avoid carmelization, which would introduce variability into the optical density of the medium] containing from 0 mM to 2.5 mM cAMP (or either 0.5 mM or 1.0 mM cGMP). This was to repress expression of the fbp1-ura4 reporter prior to exposure of cells to 5FOA medium. Cells were grown at 30° C. to exponential phase (approximately 10^7 cells/ml). […] Starting cell concentrations ranged from 0.5×10^5 to 4×10^5 cells/ml depending on the screening strain. […] Other positive control dishes contained 5 mM cAMP in the 5FOA medium for PDEs that lack appropriate control compounds. Cultures were grown for 48 hours at 30° C., sealed in an airtight container with moist paper towels to prevent evaporation. Optical densities (OD600) of cultures were measured using a microplate reader. Bioinformatic analysis of the results to determine composite Z scores was performed as previously described (1, 3).

[2] = biological target: T2, PDE7A (Homo sapiens, UniProt Q13946); test: Fission yeast 5FOA growth assay, strain expressing PDE7A; format: cell-based; conditions: 5FOA growth screen; for 2 Assay (2 uM), PDE 7A: 2 uM compound; for 1 Assay (20 uM), PDE 7A: 20 uM compound
T2 construct: targets used in the assays are full-length proteins (as opposed to simply the catalytic domain); expressed in transfected cells; host or cells: Schizosaccharomyces pombe, gene integrated at the cgs2 locus
T2 sequence (Q13946 whole entry, the tested form may be a part): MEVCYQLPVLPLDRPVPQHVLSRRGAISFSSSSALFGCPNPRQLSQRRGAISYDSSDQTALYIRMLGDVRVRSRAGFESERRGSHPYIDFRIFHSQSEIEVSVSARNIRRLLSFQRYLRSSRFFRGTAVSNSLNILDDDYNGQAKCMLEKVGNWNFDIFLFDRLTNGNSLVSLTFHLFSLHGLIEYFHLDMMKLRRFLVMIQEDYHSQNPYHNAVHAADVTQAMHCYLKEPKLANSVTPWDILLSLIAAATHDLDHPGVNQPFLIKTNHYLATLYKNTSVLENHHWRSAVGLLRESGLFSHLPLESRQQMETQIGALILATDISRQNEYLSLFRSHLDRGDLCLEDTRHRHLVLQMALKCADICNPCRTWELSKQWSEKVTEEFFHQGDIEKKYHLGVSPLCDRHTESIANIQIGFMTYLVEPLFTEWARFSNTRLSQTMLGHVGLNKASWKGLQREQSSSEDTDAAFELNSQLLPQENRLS
Description: Cells were pregrown in EMM medium [MP Biomedicals (Solon, OH), 3% glucose, filter-sterilized to avoid carmelization, which would introduce variability into the optical density of the medium] containing from 0 mM to 2.5 mM cAMP (or either 0.5 mM or 1.0 mM cGMP). This was to repress expression of the fbp1-ura4 reporter prior to exposure of cells to 5FOA medium. Cells were grown at 30° C. to exponential phase (approximately 10^7 cells/ml). Cells were collected by centrifugation and resuspended in 5FOA medium, and 25 μl were transferred to 384-well microtiter dishes (untreated, with flat clear bottoms) that had been pre-filled with 25 μl 5FOA medium and pre-pinned with 100 nl of compounds (stock solutions were generally 10 mM). Starting cell concentrations ranged from 0.5×10^5 to 4×10^5 cells/ml depending on the screening strain. […] Other positive control dishes contained 5 mM cAMP in the 5FOA medium for PDEs that lack appropriate control compounds. Cultures were grown for 48 hours at 30° C., sealed in an airtight container with moist paper towels to prevent evaporation. Optical densities (OD600) of cultures were measured using a microplate reader. Bioinformatic analysis of the results to determine composite Z scores was performed as previously described (1, 3).

[3] = biological target: T3, PDE4B3 (Mus musculus, UniProt Q8VBU5); test: Fission yeast 5FOA growth assay, strain expressing PDE4B3; format: cell-based, murine; conditions: 5FOA growth screen; for 2 Assay (2 uM), PDE 4B3: 2 uM compound; for 1 Assay (20 uM), PDE 4B3: 20 uM compound
T3 construct: targets used in the assays are full-length proteins (as opposed to simply the catalytic domain); expressed in transfected cells; host or cells: Schizosaccharomyces pombe, gene integrated at the cgs2 locus
T3 sequence (Q8VBU5 1-721): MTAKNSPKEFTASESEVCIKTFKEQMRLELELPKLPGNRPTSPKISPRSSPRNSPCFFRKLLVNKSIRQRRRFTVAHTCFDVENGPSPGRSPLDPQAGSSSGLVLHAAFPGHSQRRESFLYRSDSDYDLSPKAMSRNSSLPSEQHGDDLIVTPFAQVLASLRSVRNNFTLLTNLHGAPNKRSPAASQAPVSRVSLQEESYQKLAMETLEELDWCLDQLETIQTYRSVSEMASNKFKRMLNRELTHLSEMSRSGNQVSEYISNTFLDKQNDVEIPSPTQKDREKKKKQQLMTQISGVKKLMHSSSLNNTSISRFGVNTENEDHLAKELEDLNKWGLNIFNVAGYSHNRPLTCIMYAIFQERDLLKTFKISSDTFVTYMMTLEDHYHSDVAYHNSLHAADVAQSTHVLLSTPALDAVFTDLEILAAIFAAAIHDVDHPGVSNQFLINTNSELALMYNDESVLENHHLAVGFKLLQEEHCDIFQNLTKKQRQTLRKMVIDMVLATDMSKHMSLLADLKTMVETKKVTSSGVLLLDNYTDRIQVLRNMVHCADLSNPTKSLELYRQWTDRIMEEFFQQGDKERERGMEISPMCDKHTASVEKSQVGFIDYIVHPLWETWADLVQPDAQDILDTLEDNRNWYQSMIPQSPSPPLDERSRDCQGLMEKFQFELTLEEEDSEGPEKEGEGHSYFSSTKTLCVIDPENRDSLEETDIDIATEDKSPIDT
Description: as §1, §2

| Compound | 2 Assay (2 uM), PDE 4A1 [1] | 1 Assay (20 uM), PDE 4A1 [1] | 2 Assay (2 uM), PDE 7A [2] | 1 Assay (20 uM), PDE 7A [2] | 2 Assay (2 uM), PDE 4B3 [3] | 1 Assay (20 uM), PDE 4B3 [3] |
| --- | --- | --- | --- | --- | --- | --- |
| COC(=O)C1=C(C)N(C2CCCCC2)C(=O)/C1=C\c1cccs1 [Compound 22] | 27.01 | 98.84 | 57.22 | 132.82 | 37.54 | 70.26 |
| COC(=O)C1=C(C)N(c2ccccc2F)C(=O)/C1=C\c1cccc(OC)c1O [2008, C21] | – | 18.97 ND ND ND ND | – | −0.08 ND ND ND ND | – | 24.16 ND ND ND ND |
| COC(=O)C1=C(C)N(c2ccccc2)/C(=C/c2cccs2)C1=O [2008, K19] | – | −0.46 ND ND ND ND | – | 2.43 ND ND ND ND | – | −0.61 ND ND ND ND |
| COC(=O)C1=C(C)N(c2ccc(C(C)C)cc2)C(=O)/C1=C\c1cccs1 [2008, O19] | – | 0.80 ND ND ND ND | – | 2.78 ND ND ND ND | – | −2.99 ND ND ND ND |

Results, then the compound that gave them:

| 2 Assay (2 uM), PDE 4A1 [1] | 1 Assay (20 uM), PDE 4A1 [1] | 2 Assay (2 uM), PDE 7A [2] | 1 Assay (20 uM), PDE 7A [2] | 2 Assay (2 uM), PDE 4B3 [3] | 1 Assay (20 uM), PDE 4B3 [3] | Compound |
| --- | --- | --- | --- | --- | --- | --- |
| – | 106.90 | – | 0.31 | – | 200.51 | Cc1ccc2c(c1)c1nc3ccccc3nc1n2C(C)C [Compound 41] |
| 17.41 | 64.18 | 5.07 | 2.34 | 22.05 | −0.26 | COC(=O)C1=C(C)N(c2ccccc2Cl)C(=O)/C1=C\c1cccs1 [Compound 27] |
